Tested on: Huh7 cells stably expressing DENV-3 replicon (strain D3MY05-34640)
Assay: Luciferase reporter replicon assay, DENV-3
Format: cell-based
Conditions: on moving the 3-F group to the ortho position (compared with the 3-F analogue)

## O=C1CC2(C(=O)Nc3ccc(Cl)cc32)c2cnn(Cc3ccc(Cl)c(F)c3)c2N1 (stereo not shown) [Compound 22, 5-Chloro-1’-(4-chloro-3-fluorobenzyl)-5’,7’-dihydrospiro[indoline-3,4’-pyrazolo[3,4-b]pyridine]-2,6’(1’H)-dione]
  loss of potency against DENV-3: 20 fold

Reference: publication PMC8848308 (Bioorganic & medicinal chemistry letters, 2020)
